Results from patent US7786299B2, “Methods for treating diseases or conditions using dihydropteridinone compounds” (Boehringer Ingelheim Pharma GmbH & Co. KG, priority 2003, dated 2010).

Tests used:
HeLaS3 cells = experiment: Measurement of cytotoxicity on cultivated human tumour cells (AlamarBlue); format: cell-based; settings: HeLa in Table 1; unit inferred
Procedure: The activity of the compounds according to the invention was determined in the cytotoxicity test on cultivated human tumour cells and/or in a FACS analysis, for example on HeLaS3 cells.
Measurement of Cytotoxicity on Cultivated Human Tumour Cells
To measure the cytotoxicity on cultivated human tumour cells, cells of the cervical cancer tumour cell line HeLaS3 (obtained from American Type Culture Collection (ATCC)) in Ham's F12 Medium (Life Technologies) and 10% foetal calf serum (Life Technologies) were cultivated and harvested in the logarithmic growth phase. Then the HeLaS3 cells were placed in 96-well plates (Costar) at a density of 1000 cells per well and incubated overnight in an incubator (at 37° C. and 5% CO2), while on each plate 6 wells were filled only with medium (3 wells as a control of the medium, 3 wells for incubation with reduced AlamarBlue). The active substances were added to the cells in various concentrations (dissolved in DMSO; final concentration: 1%) (in each case as a triple measurement). After 72 hours' incubation, 20 μl of AlamarBlue (AccuMed International) were added to each well, and the cells were incubated for a further 7 hours. As a control, 20 μl of reduced Alamar Blue (AlamarBlue reagent which had been autoclaved for 30 min) were added to 3 wells. After 7 h incubation the colour change of the AlamarBlue reagent in the individual wells was determined in a Perkin Elmer fluorescence spectrophotometer (excitation 530 nm, emission 590 nm, slits 15, integrate time 0.1). The amount of AlamarBlue reagent reacted represents the metabolic activity of the cells. The relative cell activity was calculated as a percentage of the control (HeLa S3 cells without inhibitor) and the active substance concentration which inhibits the cell activity by 50% (IC^50) was obtained. The values were calculated from the average of three individual measurements, correcting for the control value (medium control).

H460-VINC = experiment: Cytotoxicity on H460-VINC cells (Table 1; method not given); format: cell-based; settings: H460-VINC of Table 1; unit inferred

| SMILES | IC50 (HeLaS3 cells) [nM] | IC50 (H460-VINC) [nM] |
| --- | --- | --- |
| CC[C@@H]1C(=O)N(C)c2cnc(Nc3ccc(C(=O)NC4CCN(C)CC4)cc3OC)nc2N1c1ccccc1 [Example 88] | 20 | 1020 |
| CC[C@@H]1C(=O)N(C)c2cnc(Nc3ccc(C(=O)NCC(C)(C)CN(C)C)cc3OC)nc2N1c1ccccc1 [Example 89] | 47 | 245 |
| CC[C@@H]1C(=O)N(C)c2cnc(Nc3ccc(C(=O)NC(C)(C)CN(C)C)cc3OC)nc2N1CCC(C)C [Example 90] | 32 | 137 |
| COc1cc(C(=O)NC2CC3CCC(C2)N3C)ccc1Nc1ncc2c(n1)N(C1CCCCC1)[C@H](C)C(=O)N2C (some centres unmarked) [Example 91] | 41 | 1780 |
| Cc1cc(C(=O)NC2CCN(C)CC2)ccc1Nc1ncc2c(n1)N(C1CCCCC1)[C@H](C)C(=O)N2C [Example 94] | 18 | 510 |
| CC[C@@H]1C(=O)N(C)c2cnc(Nc3ccc(C(=O)NC4CCN(C)CC4)cc3OC)nc2N1C1CCCCC1 [Example 96] | 11 | 577 |
| CC[C@@H]1C(=O)N(C)c2cnc(Nc3ccc(C(=O)N[C@H]4CC[C@H](N5CCOCC5)CC4)cc3OC)nc2N1C1CCCCC1 [Example 97] | 32 | 66 |
| COc1cc(C(=O)N[C@H]2CC[C@H](N3CCCC3)CC2)ccc1Nc1ncc2c(n1)N(C1CCCCC1)[C@H](C)C(=O)N2C [Example 98] | 77 | 1320 |
| COc1cc(C(=O)NC2CCC(N3CCN(CC4CC4)CC3)CC2)ccc1Nc1ncc2c(n1)N(C(C)C)C(C)C(=O)N2C (centres unmarked) [Example 112] | 75 | 345 |
| CCC1C(=O)N(C)c2cnc(Nc3ccc(C(=O)NC4CCC(N5CCN(C)CC5)CC4)cc3OC)nc2N1C(C)C (centres unmarked) [Example 113] | 37 | 687 |
| COc1cc(C(=O)NC2CCC(N(C)C)CC2)ccc1Nc1ncc2c(n1)N(CCC(C)C)C(C)C(=O)N2C (centres unmarked) [Example 114] | 64 | 766 |
| COc1cc(C(=O)NC2CCN(Cc3ccccc3)CC2)ccc1Nc1ncc2c(n1)N(C1CCCCC1)C(C)C(=O)N2C (centres unmarked) [Example 115] | 16 | 76 |
| CCC1C(=O)N(C)c2cnc(Nc3ccc(C(=O)NC4CCN(C5CCOCC5)CC4)cc3OC)nc2N1C1CCCC1 (centres unmarked) [Example 116] | 6 | 174 |
| COc1cc(C(=O)NC2CC(C)(C)N(C)C(C)(C)C2)ccc1Nc1ncc2c(n1)N(C1CCCCC1)C(C)C(=O)N2C (centres unmarked) [Example 117] | 10 | 370 |
| COc1cc(C(=O)NC2CCC(N(C)C)CC2)ccc1Nc1ncc2c(n1)N(C1CCCCC1)C(C)C(=O)N2C (centres unmarked) [Example 118] | 10 | 279 |
| CCN1CCC(NC(=O)c2ccc(Nc3ncc4c(n3)N(C3CCCCC3)C(C)C(=O)N4C)c(OC)c2)CC1 (centres unmarked) [Example 119] | 8 | 438 |
| COc1cc(C(=O)NC2CCN(C3CCOCC3)CC2)ccc1Nc1ncc2c(n1)N(C1CCCCC1)C(C)C(=O)N2C (centres unmarked) [Example 120] | 14 | 374 |
| COc1cc(C(=O)NC2CCC(N3CCCCC3)CC2)ccc1Nc1ncc2c(n1)N(C1CCCCC1)C(C)C(=O)N2C (centres unmarked) [Example 126] | 51 | 742 |
| CCC1C(=O)N(C)c2cnc(Nc3ccc(C(=O)NC4CCC(N5CCCCC5)CC4)cc3OC)nc2N1C1CCCC1 (centres unmarked) [Example 128] | 15 | 282 |
| CCC1C(=O)N(C)c2cnc(Nc3ccc(C(=O)NC4CCC(N5CCCCC5)CC4)cc3OC)nc2N1C(C)C (centres unmarked) [Example 129] | 35 | 646 |

| SMILES | IC50 (HeLaS3 cells) [nM] | IC50 (H460-VINC) [nM] |
| --- | --- | --- |
| COc1cc(C(=O)NC2CCC(N3CCOCC3)CC2)ccc1Nc1ncc2c(n1)N(C1CCCCC1)C(C)C(=O)N2C (centres unmarked) [Example 130] | 15 | 91 |
| CCC1C(=O)N(C)c2cnc(Nc3ccc(C(=O)NC4CCC(N5CCOCC5)CC4)cc3OC)nc2N1C1CCCC1 (centres unmarked) [Example 131] | 23 | 101 |
| CCC1C(=O)N(C)c2cnc(Nc3ccc(C(=O)NC4CCC(N5CCOCC5)CC4)cc3OC)nc2N1C1CCCC1 (centres unmarked) [Example 133] | 11 | 75 |
| CCC1C(=O)N(C)c2cnc(Nc3ccc(C(=O)NC4CCC(N5CCCC5)CC4)cc3OC)nc2N1C(C)C (centres unmarked) [Example 135] | 12 | 699 |
| COc1cc(C(=O)NC2CCC(N3CCOCC3)CC2)ccc1Nc1ncc2c(n1)N(C1CCCCC1)C(C)C(=O)N2C (centres unmarked) [Example 137] | 39 | 148 |
| CCC1C(=O)N(C)c2cnc(Nc3ccc(C(=O)NC4CCC(N5CCCC5)CC4)cc3OC)nc2N1C1CCCC1 (centres unmarked) [Example 138] | 43 | 1140 |
| COc1cc(C(=O)NC2CCN(C)CC2)ccc1Nc1ncc2c(n1)N(CC(C)(C)C)C(C)C(=O)N2C (centres unmarked) [Example 145] | 43 | ≥ 3000 |
| COc1cc(C(=O)NC2CCN(C)CC2)ccc1Nc1ncc2c(n1)N(CCC(C)C)C(C)C(=O)N2C (centres unmarked) [Example 146] | 66 | 966 |
| CC[C@@H]1C(=O)N(C)c2cnc(Nc3ccc(C(=O)NCCCCN(CC)CC)cc3OC)nc2N1CCC(C)C [Example 153] | 72 | 2640 |
| CC[C@@H]1C(=O)N(C)c2cnc(Nc3ccc(C(=O)NCCN4CCOCC4)cc3OC)nc2N1CCC(C)C [Example 156] | 48 | 481 |
| CC[C@@H]1C(=O)N(C)c2cnc(Nc3ccc(C(=O)NCCN(CC)CC)cc3OC)nc2N1CCC(C)C [Example 158] | 43 | 536 |
| CC[C@@H]1C(=O)N(C)c2cnc(Nc3ccc(C(=O)NCCN(C(C)C)C(C)C)cc3OC)nc2N1CCC(C)C [Example 160] | 37 | 728 |
| COc1cc(C(=O)NC2CCN(C)CC2)ccc1Nc1ncc2c(n1)N(CCC(C)C)C(C)(C)C(=O)N2C [Example 162] | 71 | 903 |
| CC[C@@H]1C(=O)N(C)c2cnc(Nc3ccc(C(=O)NCCCN(C)C)cc3OC)nc2N1CCC(C)C [Example 164] | 30 | 975 |
| CC[C@@H]1C(=O)N(C)c2cnc(Nc3ccc(C(=O)NCCCN(CC)CC)cc3OC)nc2N1CCC(C)C [Example 165] | 46 | 668 |
| CC[C@@H]1C(=O)N(C)c2cnc(Nc3ccc(C(=O)NCCC4CCCN4C)cc3OC)nc2N1CCC(C)C (some centres unmarked) [Example 167] | 34 | 817 |
| CC[C@@H]1C(=O)N(C)c2cnc(Nc3ccc(C(=O)NCC(C)(C)CN(C)C)cc3OC)nc2N1CCC(C)C [Example 168] | 42 | 88 |
| CC[C@@H]1C(=O)N(C)c2cnc(Nc3ccc(C(=O)NCCCN4CCCCC4)cc3OC)nc2N1CCC(C)C [Example 169] | 44 | 503 |
| CC[C@@H]1C(=O)N(C)c2cnc(Nc3ccc(C(=O)NCCN4CCCC4)cc3OC)nc2N1CCC(C)C [Example 170] | 45 | 427 |
| CC[C@@H]1C(=O)N(C)c2cnc(Nc3ccc(C(=O)NC4CCN(C)CC4)cc3OC)nc2N1CCC(C)C [Example 171] | 31 | 790 |
